From BigSolDB 2.1

COC(=O)[C@@H](N)Cc1c[nH]c2ccccc12.Cl
solubility (mole fraction)
Conditions | 283.2 K | 288.2 K | 293.2 K | 298.2 K | 303.2 K | 308.2 K | 313.2 K | 318.2 K | 323.2 K
in 2-butanone | 0.000254 | 0.000295 | 0.00034 | 0.000401 | 0.000495 | 0.00058 | 0.000748 | 0.001 | 0.00141
in acetone | 0.000289 | 0.000374 | 0.000489 | 0.000605 | 0.000793 | 0.00104 | 0.00144 | 0.00219 | 0.00343
in acetonitrile | 3.75e-05 | 4.38e-05 | 5.24e-05 | 6.55e-05 | 8.15e-05 | 0.000101 | 0.000123 | 0.000147 | 0.000183
in ethanol | 0.00608 | 0.00634 | 0.00683 | 0.00737 | 0.00812 | 0.00885 | 0.00966 | 0.0108 | 0.012
in ethyl acetate | 4.01e-05 | 4.86e-05 | 5.9e-05 | 7.36e-05 | 0.000101 | 0.000134 | 0.000174 | 0.000226 | 0.000296
in isobutanol | 0.00135 | 0.00142 | 0.0015 | 0.00172 | 0.00205 | 0.00245 | 0.00281 | 0.00326 | 0.00374
in isopropanol | 0.00109 | 0.00122 | 0.00135 | 0.00157 | 0.00176 | 0.00195 | 0.0022 | 0.00241 | 0.00273
in methanol | 0.0291 | 0.0301 | 0.0317 | 0.0334 | 0.0354 | 0.0379 | 0.0403 | 0.0437 | 0.0478
in n-butanol | 0.00221 | 0.00231 | 0.00247 | 0.00263 | 0.00281 | 0.00304 | 0.00327 | 0.0035 | 0.00385
in n-propanol | 0.00303 | 0.00322 | 0.00348 | 0.00376 | 0.00401 | 0.00431 | 0.00465 | 0.00512 | 0.00574
in sec-butanol | 0.0013 | 0.00135 | 0.00149 | 0.00165 | 0.00183 | 0.00206 | 0.00227 | 0.00251 | 0.00296
in water | 0.00839 | 0.00951 | 0.0107 | 0.0125 | 0.015 | 0.0175 | 0.02 | 0.024 | 0.0278
